Laboratory results reported in patent US20080119462A1, “METHOD FOR TREATING VASCULAR HYPERPERMEABLE DISEASE” (Sucampo AG, priority 2003, published 2008).

Assays:
[1] = biological target: T1, Rat plasma SSAO (Rattus norvegicus, UniProt O08590); test: Radiochemical-enzyme assay of VAP-1 enzyme (SSAO) activity with 14C-benzylamine, rat plasma; assay type: biochemical
T1 construct: The enzyme suspension prepared from blood plasma was pre-incubated with Compound A; from tissue; host or cells: rat blood plasma
T1 sequence (O08590 27-763 limits assumed): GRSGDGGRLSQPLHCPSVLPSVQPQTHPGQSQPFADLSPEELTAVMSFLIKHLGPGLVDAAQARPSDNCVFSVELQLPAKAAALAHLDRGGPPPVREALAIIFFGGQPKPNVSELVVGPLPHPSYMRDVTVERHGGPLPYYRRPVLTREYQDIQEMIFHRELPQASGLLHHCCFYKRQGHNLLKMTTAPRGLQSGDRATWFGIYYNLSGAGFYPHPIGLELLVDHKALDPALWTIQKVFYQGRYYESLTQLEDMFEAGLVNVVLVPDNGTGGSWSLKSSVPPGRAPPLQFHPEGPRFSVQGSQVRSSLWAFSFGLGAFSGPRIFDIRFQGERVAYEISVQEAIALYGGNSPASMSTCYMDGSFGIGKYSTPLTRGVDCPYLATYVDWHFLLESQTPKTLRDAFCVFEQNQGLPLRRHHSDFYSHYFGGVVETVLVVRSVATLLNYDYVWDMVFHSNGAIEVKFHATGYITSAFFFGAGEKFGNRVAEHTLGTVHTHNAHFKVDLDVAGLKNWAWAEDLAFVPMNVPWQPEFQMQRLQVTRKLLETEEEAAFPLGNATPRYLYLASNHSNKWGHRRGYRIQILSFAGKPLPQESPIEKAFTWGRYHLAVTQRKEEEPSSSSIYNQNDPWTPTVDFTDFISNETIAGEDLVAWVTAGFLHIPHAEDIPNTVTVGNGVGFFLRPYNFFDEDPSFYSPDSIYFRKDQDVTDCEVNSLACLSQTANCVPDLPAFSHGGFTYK
Description: VAP-1 enzyme (SSAO) activity in both human and rat plasma was determined by a radiochemical-enzyme assay using ^14C-benzylamine as artificial substrate. The enzyme suspension prepared from blood plasma was pre-incubated with Compound A in 96-well microplate at room temperature for 30 min. The enzyme suspension was then incubated with ^14C-benzylamine (2×10^−5 mol/l final concentration) in a final volume of 50 μl at 37° C. for 1 hour. The enzyme reaction was terminated by adding 2 mol/l (50 μl) citric acid. The oxidized products were directly extracted into a 200 μl toluene scintillator, and its radioactivity was measured by a scintillation spectrometer. Monoamine oxidase (MAO) and diamine oxidase (DAO, histaminase) activities were also determined by similar method using ^14C-phenylethylamine and ^14C-putrescine as substrate, respectively. Cloned DAO from cDNA libraries was used in human DAO assay. Inhibition activity was expressed as IC50 (μmol/l) value.

[2] = biological target: T2, plasma SSAO (Rattus norvegicus, UniProt O08590); test: Plasma SSAO activity in STZ diabetic rats after treatment; assay type: in vivo
T2 construct: The enzyme suspension prepared from blood plasma was pre-incubated with Compound A; from tissue; host or cells: rat blood plasma
T2 sequence (O08590 27-763 limits assumed): T1 sequence (O08590 27-763 limits assumed)
Description: Diabetes in rats was induced with an intraperitoneal (i.p.) injection of 65 mg/ml/kg of streptozotocin (STZ) in 2 mmol/l citrate buffer (pH 4.5) after a 20-h fast. At the same time control rats were injected with an equal volume of 2 mmol/l citrate buffer. Plasma glucose level was checked by a calorimetric method. At day 3 of STZ treatment, the rats were diagnosed with diabetes showing a plasma glucose level of 350 mg/dl.
The treatment of Compound A was given daily from 2 weeks after STZ treatment for 2 weeks. At 24 hrs after final treatment of Compound A, the vascular permeability in oculus was investigated based on the leakage of dye into the vitreous 30 min after intravenous injection of fluorescein solution (40 mg/ml/kg). Permeability was expressed as vitreous/plasma ratio of fluorescein concentration measured by a fluorophotometer. At the same time, the plasma SSAO activity was checked by the radiochemical-enzyme assay using ^14C-benzylamine (2×10^−5 mol/l final concentration) as substrate.

[3] = biological target: T3, retinal VAP-1 (Rattus norvegicus, UniProt O08590); test: Retinal VAP-1 activity in STZ diabetic rats after eye-drop instillation; assay type: in vivo
T3 construct: from tissue; host or cells: retina of STZ diabetic rats
T3 sequence (O08590 1-763): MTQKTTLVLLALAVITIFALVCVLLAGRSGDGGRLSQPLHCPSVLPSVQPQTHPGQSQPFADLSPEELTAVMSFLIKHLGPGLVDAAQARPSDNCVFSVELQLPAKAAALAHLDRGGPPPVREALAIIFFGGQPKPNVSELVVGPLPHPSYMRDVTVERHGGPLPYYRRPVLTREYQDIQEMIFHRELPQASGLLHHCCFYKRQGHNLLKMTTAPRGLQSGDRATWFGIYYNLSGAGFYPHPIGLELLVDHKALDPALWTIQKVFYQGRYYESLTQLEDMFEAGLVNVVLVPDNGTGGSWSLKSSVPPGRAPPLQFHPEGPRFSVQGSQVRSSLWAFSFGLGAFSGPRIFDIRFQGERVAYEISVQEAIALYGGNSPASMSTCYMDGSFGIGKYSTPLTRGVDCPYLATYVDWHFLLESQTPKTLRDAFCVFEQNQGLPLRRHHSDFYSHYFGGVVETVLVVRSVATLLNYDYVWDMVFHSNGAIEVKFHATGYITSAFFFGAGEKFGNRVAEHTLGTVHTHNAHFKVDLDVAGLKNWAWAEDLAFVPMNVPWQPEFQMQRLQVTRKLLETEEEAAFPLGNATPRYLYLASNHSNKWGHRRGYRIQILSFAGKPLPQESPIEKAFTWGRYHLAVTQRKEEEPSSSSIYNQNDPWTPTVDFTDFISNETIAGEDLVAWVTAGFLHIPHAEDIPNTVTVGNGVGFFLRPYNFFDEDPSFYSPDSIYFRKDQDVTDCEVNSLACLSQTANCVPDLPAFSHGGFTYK
Description: A 0.1% solution of Compound A was instilled into the eyes of STZ diabetic rats (10 μl/eye) prepared in the same manner as in Example 2. To the normal group and STZ control group, a vehicle was instilled. At 6 hours from the instillation, the retina was removed from the animals and the retinal VAP-1 activity was determined.

CC(=O)Nc1nc(CCc2ccc(NC(=N)N)cc2)cs1 [Compound A, N-{4-[2-(4-{[amino(imino)methyl]amino}phenyl)ethyl]-1,3-thiazol-2-yl}acetamide]
Inhibition of the enzyme activity of rat plasma SSAO (in words) [1]: completely inhibited | IC50 ([1]; 30 min pre-incubation, 14C-benzylamine 2×10^−5 mol/l, 37° C., 1 hour, read-out: Inhibitory effect (IC50 values) Rat plasma SSAO): 12 nM | Effect on the increased plasma SSAO activity in diabetic rats (in words) ([2]; 4 weeks after STZ treatment): dose-dependent inhibition | Plasma SSAO activity ([2]; STZ diabetic rats, 4 weeks after STZ, Compound A treatment daily from 2 weeks after STZ, mean ± S.E.M., 10 rats): 2.51 ± 0.26 pmol/min/mL | Effect on the increased retinal VAP-1 activity in STZ diabetic rats (in words) ([3]; 0.1% solution instilled into the eyes, 6 hours): completely inhibited | Retinal VAP-1 activity ([3]; STZ diabetic rats, 0.1%, ocular instillation (10 μl/eye), 6 hours after instillation, mean ± S.E.M., 4 rats): 4.86 ± 0.70 pmol/min/mg protein
